Reference: patent publication US11814391B2, “Macrocyclic compounds for the treatment of medical disorders” (Achillion Pharmaceuticals, Inc., priority 2018, dated 2023)

The compounds below were run against Human Factor D (Homo sapiens (Human), UniProt P00746) (assay: Human Factor D assay). Conditions: Human Factor D 80 nM, substrate Z-L-Lys-SBzl, A405; read-out: IC50 (Stars).
Format: biochemical
Protocol: The assay of Example 3 was used to determine the IC50's of the compounds. Other standard factor D inhibition assays are also available.
Human Factor D (purified from human serum, Complement Technology, Inc.) at 80 nM final concentration is incubated with test compound at various concentrations for 5 min at room temperature in 50 mM Tris, 1M NaCl, pH 7.5. A synthetic substrate Z-L-Lys-SBzI and DTNB (Ellman's reagent) are added to final concentrations of 100 μM each. Absorbance at 405 nm (A405) is recorded at 30 second intervals for 30 min using a microplate spectrophotometer. IC50 values are calculated by nonlinear regression of complement Factor D reaction rates as a function of test compound concentration.

Sequence of Human Factor D (P00746 26-253): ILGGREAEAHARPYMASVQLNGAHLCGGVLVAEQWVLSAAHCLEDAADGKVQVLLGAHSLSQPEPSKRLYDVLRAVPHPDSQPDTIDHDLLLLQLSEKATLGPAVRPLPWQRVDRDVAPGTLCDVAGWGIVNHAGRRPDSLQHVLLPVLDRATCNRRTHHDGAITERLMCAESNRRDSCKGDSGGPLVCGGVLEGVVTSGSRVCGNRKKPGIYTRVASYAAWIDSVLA

`CC(=O)c1nn2c3c(cc(-c4cnc(C)nc4)cc13)CCCCCCC(=O)NC[C@@]13C[C@@H](C(=O)Nc4nc(OC(F)(F)F)ccc4C)N(C(=O)C2)[C@@H]1C3` [Compound 1, (4^1R,4^3S,4^5R)-1^3-acetyl-N-(3-methyl-6-(trifluoromethoxy)pyridin-2-yl)-1^5-(2-methylpyrimidin-5-yl)-3,7-dioxo-1^1H-4^2,6-diaza-1(1,7)-indazola-4(2,5)-bicyclo[3.1.0]hexanacyclotridecaphane-4^3-carboxamide] and `CC(=O)c1nn2c3c(cc(-c4cnc(C)nc4)cc13)CCCCCCC(=O)NC[C@@]13C[C@@H](C(=O)Nc4nc(C5CC5)ccc4C)N(C(=O)C2)[C@@H]1C3` [Compound 11, (4^1R,4^3S,45^R)-1^3-acetyl-N-(6-cyclopropyl-3-methylpyridin-2-yl)-15-(2-methylpyrimidin-5-yl)-3,7-dioxo-1^1H-4^2,6-diaza-1(1,7)-indazola-4(2,5)-bicyclo[3.1.0]hexanacyclotridecaphane-4^3-carboxamide] cannot be ordered by IC50: under 1000 nM for the first, under 1000 nM for the second.

`CC(=O)c1nn2c3c(cc(-c4cnc(C)nc4)cc13)CCCCCCC(=O)NC[C@@]13C[C@@H](C(=O)Nc4nc(Br)ccc4CN4CC(F)C4)N(C(=O)C2)[C@@H]1C3` [Compound 2, (4^1R,4^3S,4^5R)-1^3-acetyl-N-(6-bromo-3-((3-fluoroazetidin-1-yl)methyl)pyridin-2-yl)-1^5-(2-methylpyrimidin-5-yl)-3,7-dioxo-1^1H-4^2,6-diaza-1(1,7)-indazola-4(2,5)-bicyclo[3.1.0]hexanacyclotridecaphane-4^3-carboxamide] and `CC(=O)c1nn2c3c(cc(-c4cnc(C)nc4)cc13)CCCCC[C@@H](C)C(=O)NC[C@@]13C[C@@H](C(=O)Nc4cc(F)cc(Br)n4)N(C(=O)C2)[C@@H]1C3` [Compound 9, (4^1R,4^3S,4^5R,8R)-1^3-acetyl-N-(6-bromo-4-fluoropyridin-2-yl)-8-methyl-1^5-(2-methylpyrimidin-5-yl)-3,7-dioxo-1^1H-4^2,6-diaza-1(1,7)-indazola-4(2,5)-bicyclo[3.1.0]hexanacyclotridecaphane-4^3-carboxamide] cannot be ordered by IC50: under 1000 nM for the first, under 1000 nM for the second.

`CC(=O)c1nn2c3c(cc(N4CCCC4)cc13)CCCCCCC(=O)NC[C@@]13C[C@@H](C(=O)Nc4nc(C(F)(F)F)ccc4C)N(C(=O)C2)[C@@H]1C3` [Compound 3, (4^1R,4^3S,4^5R)-1^3-acetyl-N-(3-methyl-6-(trifluoromethyl)pyridin-2-yl)-3,7-dioxo-1^5-(pyrrolidin-l-yl)-1^1H-4^2,6-diaza-1(1,7)-indazola-4(2,5)-bicyclo[3.1.0]hexanacyclotridecaphane-4^3-carboxamide] and `CC(=O)c1nn2c3c(cc(N)cc13)CCCCCCC(=O)NC[C@@]13C[C@@H](C(=O)Nc4nc(C(F)(F)F)ccc4C)N(C(=O)C2)[C@@H]1C3` [Compound 15, (4^1R,4^3S,4^5R)-1^3-acetyl-1^5-amino-N-(3-methyl-6-(trifluoromethyl)pyridin-2-yl)-3,7-dioxo-1^1H-4^2,6-diaza-1(1,7)-indazola-4(2,5)-bicyclo[3.1.0]hexanacyclotridecaphane-4^3-carboxamide] cannot be ordered by IC50: under 1000 nM for the first, under 1000 nM for the second.

`CC(=O)c1nn2c3c(cc(C4CC4)cc13)CCCCCCC(=O)NC[C@@]13C[C@@H](C(=O)Nc4nc(C(F)(F)F)ccc4C)N(C(=O)C2)[C@@H]1C3` [Compound 4, (4^1R,4^3S,4^5R)-1^3-acetyl-1^5-cyclopropyl-N-(3-methyl-6-(trifluoromethyl)pyridin-2-yl)-3,7-dioxo-1^1H-4^2,6-diaza-1(1,7)-indazola-4(2,5)-bicyclo[3.1.0]hexanacyclotridecaphane-4^3-carboxamide] and `CC(=O)c1nn2c3c(cc(C)cc13)CCCCCCC(=O)NC[C@@]13C[C@@H](C(=O)Nc4nc(C(F)(F)F)ccc4C)N(C(=O)C2)[C@@H]1C3` [Compound 18, (4^1R,4^3S,4^5R)-1^3-acetyl-1^5-methyl-N-(3-methyl-6-(trifluoromethyl)pyridin-2-yl)-3,7-dioxo-1^1H-4^2,6-diaza-1(1,7)-indazola-4(2,5)-bicyclo[3.1.0]hexanacyclotridecaphane-4^3-carboxamide] cannot be ordered by IC50: under 1000 nM for the first, under 1000 nM for the second.

`CC(=O)c1nn2c3c(cc(-c4nnc(C)o4)cc13)CCCCCCC(=O)NC[C@@]13C[C@@H](C(=O)Nc4nc(C(F)(F)F)ccc4C)N(C(=O)C2)[C@@H]1C3` [Compound 5, (4^1R,4^3S,4^5R)-1^3-acetyl-1^5-(5-methyl-1,3,4-oxadiazol-2-yl)-N-(3-methyl-6-(trifluoromethyl)pyridin-2-yl)-3,7-dioxo-1^1H-4^2,6-diaza-1(1,7)-indazola-4(2,5)-bicyclo[3.1.0]hexanacyclotridecaphane-4^3-carboxamide] and `COc1cc2c3c(c1)c(C(C)=O)nn3CC(=O)N1[C@H](C(=O)Nc3nc(C(F)(F)F)ccc3C)C[C@@]3(CNC(=O)CCCCCC2)C[C@@H]13` [Compound 6, (4^1R,4^3S,4^5R)-1^3-acetyl-1^5-methoxy-N-(3-methyl-6-(trifluoromethyl)pyridin-2-yl)-3,7-dioxo-1^1H-4^2,6-diaza-1(1,7)-indazola-4(2,5)-bicyclo[3.1.0]hexanacyclotridecaphane-4^3-carboxamide] cannot be ordered by IC50: under 1000 nM for the first, under 1000 nM for the second.

`CC(=O)c1nn2c3c(cc(Oc4ncc(C)cn4)cc13)CCCCCC(=O)NC[C@@]13C[C@@H](C(=O)Nc4nc(C(F)(F)F)ccc4C)N(C(=O)C2)[C@@H]1C3` [Compound 7, (4^1R,4^3S,4^5R)-1^3-acetyl-N-(3-methyl-6-(trifluoromethyl)pyridin-2-yl)-1^5-((5-methylpyrimidin-2-yl)oxy)-3,7-dioxo-1^1H-4^2,6-diaza-1(1,7)-indazola-4(2,5)-bicyclo[3.1.0]hexanacyclododecaphane-4^3-carboxamide] and `CC(=O)c1nn2c3c(cc(OC(C)C)cc13)CCCCCCC(=O)NC[C@@]13C[C@@H](C(=O)Nc4nc(C(F)(F)F)ccc4C)N(C(=O)C2)[C@@H]1C3` [Compound 19, (4^1R,4^3S,4^5R)-1^3-acetyl-1^5-isopropoxy-N-(3-methyl-6-(trifluoromethyl)pyridin-2-yl)-3,7-dioxo-1^1H-4^2,6-diaza-1(1,7)-indazola-4(2,5)-bicyclo[3.1.0]hexanacyclotridecaphane-4^3-carboxamide] cannot be ordered by IC50: under 1000 nM for the first, under 1000 nM for the second.

`CC(=O)c1nn2c3c(cc(-c4cnc(C)nc4)cc13)CCCCC[C@@H](C)C(=O)NC[C@@]13C[C@@H](C(=O)Nc4nc(C(F)(F)F)ccc4C)N(C(=O)C2)[C@@H]1C3` [Compound 8, (4^1R,4^3S,4^5R,8R)-1^3-acetyl-8-methyl-N-(3-methyl-6-(trifluoromethyl)pyridin-2-yl)-1^5-(2-methylpyrimidin-5-yl)-3,7-dioxo-1^1H-4^2,6-diaza-1(1,7)-indazola-4(2,5)-bicyclo[3.1.0]hexanacyclotridecaphane-4^3-carboxamide] and `CC(=O)c1nn2c3c(cc(-c4cnc(C)nc4)cc13)CCCCCC(C)(C)C(=O)NC[C@@]13C[C@@H](C(=O)Nc4nc(C(F)(F)F)ccc4C)N(C(=O)C2)[C@@H]1C3` [Compound 10, (4^1R,4^3S,4^5R)-1^3-acetyl-8,8-dimethyl-N-(3-methyl-6-(trifluoromethyl)pyridin-2-yl)-1^5-(2-methylpyrimidin-5-yl)-3,7-dioxo-1^1H-4^2,6-diaza-1(1,7)-indazola-4(2,5)-bicyclo[3.1.0]hexanacyclotridecaphane-4^3-carboxamide] cannot be ordered by IC50: under 1000 nM for the first, under 1000 nM for the second.

Compared with `CC(=O)c1nn(CC(=O)N(C)[C@H]2CCCCCCCCCc3ccc(Br)nc3NC2=O)c2ccc(-c3cnc(C)nc3)cc12` [Compound 12, (S)-2-(3-acetyl-5-(2-methylpyrimidin-5-yl)-1H-indazol-1-yl)-N-(2-bromo-15-oxo-5,6,7,8,9,10,11,12,13,14, 15,16-dodecahydropyrido[2,3-b][1]azacyclotetradecin-14-yl)-N-methylacetamide], `CC(=O)c1nn2c3c(cc(-c4cnc(C)nc4)cc13)CCCCC[C@@H](C)C(=O)NC[C@@]13C[C@@H](C(=O)Nc4ccc(F)c(Br)n4)N(C(=O)C2)[C@@H]1C3` [Compound 16, (4^1R,4^3S,4^5R,8R)-1^3-acetyl-N-(6-bromo-5-fluoropyridin-2-yl)-8-methyl-1^5-(2-methylpyrimidin-5-yl)-3,7-dioxo-1^1H-4^2,6-diaza-1(1,7)-indazola-4(2,5)-bicyclo[3.1.0]hexanacyclotridecaphane-4^3-carboxamide] is lower in IC50: 1000 to 10000 nM for the first, under 1000 nM for the second.

`CC(=O)c1nn2c3c(cc(-c4cnc(C)nc4)cc13)C/C=C/CCCC(=O)N(C)C[C@@]13C[C@@H](C(=O)Nc4cc(F)cc(Br)n4)N(C(=O)C2)[C@@H]1C3` [Compound 13, (4^1R,4^3S,4^5R,E)-1^3-acetyl-N-(6-bromo-4-fluoropyridin-2-yl)-6-methyl-1^5-(2-methylpyrimidin-5-yl)-3,7-dioxo-1^1H-4^2,6-diaza-1(1,7)-indazola-4(2,5)-bicyclo[3.1.0]hexanacyclotridecaphan-11-ene-4^3-carboxamide] and `CC(=O)c1nn2c3c(cc(-c4cnc(C)nc4)cc13)CCCCCCC(=O)N(C)C[C@@]13C[C@@H](C(=O)Nc4cc(F)cc(Br)n4)N(C(=O)C2)[C@@H]1C3` [Compound 14, (4^1R,4^3S,4^5R)-1^3-acetyl-N-(6-bromo-4-fluoropyridin-2-yl)-6-methyl-1^5-(2-methylpyrimidin-5-yl)-3,7-dioxo-1^1H-4^2,6-diaza-1(1,7)-indazola-4(2,5)-bicyclo[3.1.0]hexanacyclotridecaphane-4^3-carboxamide] cannot be ordered by IC50: under 1000 nM for the first, under 1000 nM for the second.

For `CC(=O)c1nn2c3c(cc(OCC(C)C)cc13)CCCCCCC(=O)NC[C@@]13C[C@@H](C(=O)Nc4nc(C(F)(F)F)ccc4C)N(C(=O)C2)[C@@H]1C3` [Compound 17, (4^1R,4^3S,4^5R)-1^3-acetyl-1^5-isobutoxy-N-(3-methyl-6-(trifluoromethyl)pyridin-2-yl)-3,7-dioxo-1^1H-4^2,6-diaza-1(1,7)-indazola-4(2,5)-bicyclo[3.1.0]hexanacyclotridecaphane-4^3-carboxamide], the IC50 was under 1000 nM.
